Data from patent US20220370001A1, “INTESTINAL DIAGNOSTIC SCREENING DEVICE AND METHOD FOR TARGETED GASTROINTESTINAL THERAPY” (AJM MED-I-CAPS LTD, priority 2019, published 2022).

What was measured:
[1] = Fluorescence excitation and emission spectra; type: physicochemical
Source text: FIG. 2A is a graph of Near-Infra-Red fluorescence absorbance and emission spectra of CF750 at varying wavelengths, according to an example embodiment of the present disclosure. CF750 has a NIRF peak excitation (solid line) and a peak emission (dotted line) at 760 nm and 780 nm, respectively. Likewise, FIG. 2B is a graph of near-infra-red fluorescence absorbance and emission spectra of IRDye® CW800, according to an example embodiment of the present disclosure. IRDye® CW800 has a peak NIRF excitation and a peak NIRF emission at 774 nm and 789 nm, respectively. FIG. 2C is a graph of absorbance and emission spectra of anticancer drug doxorubicin at varying wavelengths, according to an example embodiment of the present disclosure. Doxorubicin has a peak excitation and a peak emission at 470 nm and 550 nm, respectively.
DSA (3 mg) is mixed with 800 μL of 1:1 dichloromethane and methanol in a glass vial. IRDye® 800CW NHS ester (0.5 mg) was dissolved in methanol (200 μL) then immediately combined with the lipid solution. The mixture is covered to protect it from light and left on a vortex mixer for 2.5 h. The solvent is then reduced in vacuum, dissolved in minimal amount of chloroform and applied to a silica micro-column (˜3 mL) also in chloroform. The unbound fraction is reapplied several times, before elution and washing with the same solvent. Excess DSA and unreacted dye material is retained on the column and the latter is estimated at <10% of the coloured fraction. The unbound product is dried to a film and stored as a solution in 1 mL chloroform.

[2] = reported value for the free dye; cited from earlier work

| peak emission (Emmax) [1] | peak excitation (Exmax) [1] | Structure (SMILES) | Emmax, reported value [2] | Exmax, reported value [2] |
| --- | --- | --- | --- | --- |
| 550 nm | 470 nm | COc1cccc2c1C(=O)c1c(O)c3c(c(O)c1C2=O)C[C@@](O)(C(=O)CO)C[C@@H]3O[C@H]1C[C@H](N)[C@H](O)[C@H](C)O1 [Doxorubicin, doxorubicin] | – | – |
| 789 nm | 774 nm | CC1(C)C(/C=C/C2=C(Oc3ccc(S(=O)(=O)O)cc3)C(=C/C=C3/N(CCCCS(=O)(=O)O)c4ccc(S(=O)(=O)[O-])cc4C3(C)C)/CCC2)=[N+](CCCCCC(=O)O)c2ccc(S(=O)(=O)O)cc21 [IRDye® CW800] | 789 nm | 774 nm |
